Earlier results on one molecule are cited in PMC9042886 (RSC Advances, 2021).

For one data set, the system named is HDAC6. The settings on record: read-out: IC50 for HDAC6.
For a further data set, the system named is HDAC8. The settings on record: read-out: IC50 for HDAC8.

With `Oc1ccc[nH]c1=S` [3-HPT, 3-hydroxypyridin-2-thione], the IC50 in the data set on HDAC6 is 0.306 ± 0.069 µM; in the data set with HDAC8 it was 3.1 ± 1.65 µM.

By IC50 is commonly meant the concentration needed to halve the response being measured.
